Measured values published in article PMC6776562, “Inhibition of Rac1-dependent forgetting alleviates memory deficits in animal models of Alzheimer’s disease” (Protein & Cell, 2019).
Entries after “also recorded” stand apart in the source; their conditions may differ.

Assays:
Rac1 in HEK-293 cells = test: Rac1 activation in cultured cells detected by G-LISA; assay type: cell-based; details: 10 μg/mL Aβ42 oligomers in culture medium for 2 h
Method: Synthetic wide-type Aβ42 (purchased from AnaSpec) was initially dissolved in hexafluoroisopropanol (Sigma) to 5 mg/mL for subpackaging. Hexafluoroisopropanol was removed by air drying to obtain an Aβ42 peptide film, which was stored at −80 °C. Then, 24 h before the experiment, the peptide film was first re-suspended in DMSO to a concentration of 12.5 mg/mL and then diluted with Dulbecco’s Modified Eagle Medium (DMEM)/F-12 (phenol red-free; Invitrogen) to a final concentration of 500 μg/mL. The HEK-293 cells were cultured in DMEM containing 10% fetal bovine serum (FBS) at 37 °C with 5% CO2. For oligomer treatment, cells were washed with fresh medium and incubated with 10 μg/mL Aβ42 oligomers for 2 h. Cells were washed twice with PBS before they are collected for Rac1 activity detection by G-LISA (BK128, Cytoskeleton) in accordance with the manufacturer’s protocol.

[1] = In vitro blood-brain barrier permeability assay; assay type: in vitro ADME; details: dog, 37 °C, MDR-MDCK
Method: The MDR-MDCK cell line can be used as a fast blood-brain barrier (BBB) model to aid drug discovery (Wang et al., [2005]). In this study, the MDR-MDCK cell line was used to evaluate the permeability coefficients of CS7171 and JKF-034. Briefly, CS7171 and JKF-034 were prepared to final concentrations of 5 μmol/L. The cells were dosed on the basolateral side (B-A) and apical side (A-B) and incubated at 37 °C for 90 min. Each test was performed in duplicate. The apparent permeability coefficient, Papp, was calculated using the following formula: Papp=VA/Area×Time×(drugacceptor,90-min/drugdonor,0-min×Dilution Factor
VA is the volume in the acceptor well, Area is the surface area of the membrane, Time is the total transport time in seconds, [drug]donor, 0-min is the donor drug concentration measured at 0 min; [drug]acceptor, 90-min is the acceptor drug concentration measured at 90 min; dilution factor is the degree of dilution of the donor sample before loading to LC-MS/MS.

[2] = In vitro metabolic stability in monkey liver microsomes; assay type: in vitro ADME
Method: (§1) Measurements of metabolic stability can be performed with liver microsomes, which are known to contain the major drug-metabolizing enzymes and UDP-glucuronosyltransferase (Baranczewski et al., [2006]). The in vitro metabolic stability levels of CS7171 and JKF-034 were measured using human, monkey, and mouse liver microsomes. The metabolic half-time (T1/2) and intrinsic clearance (Clint) were assayed using LC-MS analysis. Ketanserin is a potent, orally effective antagonist of endogenous serotonin. Its pharmacological profile is well studied (Brogden and Sorkin, [1990]). In this study, we used ketanserin as a control. If the T1/2 of the tested compound was 30–120 min, the compound was considered to show moderate metabolism in liver microsomes. If the T1/2 value was less than 30 min, the compound was considered to be susceptible to metabolism in liver microsomes.

[3] = In vitro metabolic stability in human liver microsomes; assay type: in vitro ADME
Method: as §1

[4] = In vitro metabolic stability in mouse liver microsomes; assay type: in vitro ADME
Method: as §1

[5] = system: LTP in hippocampal slices of APP/PS1 mice; test: Long-term potentiation (fEPSP recording) in hippocampal slices; assay type: cell-based, mouse; details: brain slices of 6-month-old APP/PS1 mice; EHop-016 10 μmol/L in ACSF
Method: Acute 300-μm transverse hippocampal slices were prepared using a vibratome (VTS3000, USA). The slices were maintained at room temperature in a submersion chamber in artificial cerebrospinal fluid (ACSF) containing 125 mmol/L NaCl (Sigma, 71376), 2.5 mmol/L KCl (Sigma, P9541), 2 mmol/L CaCl2 (Sigma, 499609), 1 mmol/L MgCl2 (Sigma, M1028), 1.25 mmol/L NaH2PO4 (Sigma, S3139), 24 mmol/L NaHCO3 (Sigma, S5761) (pH = 7.4), and 15 mmol/L glucose (Sigma, G8270), bubbled with 95% O2 and 5% CO2. Slices were incubated for at least 1 h before removal for experiments. Slices were kept in the MED probe for 1 h for attachment to the 16-channel array (MED-PG515A, Alpha MED Sciences; preheated to 33 °C). Extracellular field excitatory post-synaptic potentials (fEPSPs) in the Schaffer collateral pathway were evoked at 0.025 Hz and recorded in the CA1. The fEPSPs were evoked using a stimulation intensity that elicited a 30% maximal response. Data acquisition and analysis were performed using the multi-electrode MED64 hardware and software package (Panasonic). Additional analyses were performed using custom macros running under Igor Pro. The LTP was induced by one train of theta burst stimulation (TBS) consisting of one epoch of 10 trains of five bursts repeated at 5 Hz and delivered at the same intensity as in the baseline recordings. […]

[6] = system: Aβ42 transgenic flies (elav/Y; UAS-Aβ42/+); test: Pavlovian olfactory aversive conditioning in AD flies; assay type: in vivo, Drosophila; details: AD flies fed 100 μmol/L EHop-016 for 7 days
Method: (§2) Flies were treated with EHop-016 (Yong-Can Biotech). The EHop-016 was dissolved in dimethyl sulfoxide (DMSO; Sigma, D8418-100ML) to make a 10-mmol/L stock solution. This solution was stored at −20 °C for later use. Before administration, 4% (m/v) sucrose solution was used to dilute the stock solution to a concentration of 100 µmol/L (working solution). After the flies were starved for 3 h in empty vials, they were fed with the working solution for 5 h. Feeding was carried out once per day until testing.
To assess learning and memory, flies underwent classic olfactory aversive conditioning. One- to two-day-old flies were collected and fed with EHop-016 (100 µmol/L) for 7 days. Training and testing were performed at 24 °C with 60% relative humidity. During training, about 100 flies were exposed to an electric shock (unconditioned stimulus [US]) paired with either 3-octanol (>95% purity; Fluka, Sigma-Aldrich) or 4-methylcyclohexanol (>99% purity; Fluka, Sigma-Aldrich) as the conditioned stimulus (CS). Performance was tested using a T-maze apparatus within which 3-octanol and 4-methylcyclohexanol were delivered from opposite arms simultaneously. […] The learning score was calculated as the difference between the number of flies in each arm divided by the sum of flies in both arms immediately after training. Performance index was calculated as the average of two reciprocal tests to avoid odor bias. […]

APP/PS1 mice = test: Morris water maze (MWM) spatial learning in AD mice; assay type: in vivo, mouse
Method: (§3) Mice were treated with EHop-016 (10 mg/kg), CS7170 (50 mg/kg), CS7171 (50 mg/kg), and JKF-034 (40 mg/kg). These drugs were dissolved in saline (0.9% NaCl) containing 0.5% Tween-80 (Sigma P4780). Each mouse received 200 μL of the solution by intragastric administration once per day (administered at 9:00 am). The drug administration was started seven days before the beginning of the Morris water maze (MWM) task and was continued until the end of the assay. All control groups were fed with vehicle solution.
The MWM test, a classic paradigm used to study spatial reference memory, was performed (Vorhees and Williams, [2006]). Briefly, a circular polypropylene water tank (120 cm in diameter) was filled with opaque water and milk (20 °C ± 1 °C) and a transparent platform (15 cm diameter) was submerged (2 cm below the water surface) in the center of one of the four virtually divided quadrants. Distal cues were fixed on the wall of the tank as spatial references. For the classic training paradigm (Figs. 2 and 6), mice were allowed to find the platform within 60 s and to remain on it for at least 5 s. For the modified training paradigm (Fig. 3A), mice were trained over 5 consecutive sessions with a 1-h intervals within one day. After training, mice were returned to their home cages and the memory of the location of the platform was tested at 6 h after training (Fig. 3C–D). A mouse behavior tracking software (ANY-maze software) was used to record data automatically.

Rac1 [7] = target: Rac1 (Mus musculus, UniProt P63001); test: Rac1 activity (Rac1-GTP/total Rac1) in hippocampal tissue by PAK-PBD pull-down and Western blot after drug administration; assay type: in vivo, APP/PS1 mice
Method: We first assayed Rac1 activity in hippocampal tissues from AD patients and healthy age-matched, non-demented controls (Detailed information is provided in Table 1). The levels of the guanosine triphosphate (GTP)-bound active form of Rac1 were measured using the p21-binding domain (PBD) pull-down assay. The GTP-bound active form of Rac1 was pulled down through the interactive p21-activated kinase (PAK) fragment using PAK-PBD beads and measured using a Western blot assay (Fig. 1A), as described in previous studies (Shuai et al., [2010]; Liu et al., [2016]) from our laboratory and studies conducted by other research groups (Sander et al., [1998]; Barnes et al., [2008]). The total amount of Rac1 and actin were also evaluated using the Western blot analyses (See MATERIALS AND METHODS). […] Since there were no significant differences in total Rac1 levels between the experimental and control groups (See representative Western blot in all relevant figures), the ratio of Rac1-GTP to total Rac1 was taken as a measure of Rac1 activity. […] Consistent with this observation, Rac1 activity was also elevated in the hippocampus of APP/PS1 mice at different age (Fig. 1D). […] This increase was more pronounced in older flies (Fig. S1F).
as §3
The hippocampal tissues from human subjects and mice were harvested and stored in a liquid nitrogen tank for biochemical assay. The tissues were homogenized in cold lysis buffer (Merck-Millipore, 20-168). The insoluble debris were removed after centrifugation at 13,000 rpm (for 10 min, at 4 °C). For GTP-bound Rac/Cdc42, lysates were incubated with GST-tagged PAK (p21-activated kinase)-PBD agarose beads (Cytoskeleton, PAK02) overnight at 4 °C. On the second day, the beads were washed three times with lysis buffer before subjecting them to SDS-PAGE (15%) and transferring them onto nitrocellulose membranes (Millipore, HATF00010). The membranes were incubated with primary antibodies (for Rac1: BD Transduction Laboratories, #610650, 1:2,000 dilution; for Cdc42, Santa Cruz Biotechnology, lot No. sc-8401, 1:500 dilution) overnight at 4 °C and with HRP-conjugated goat anti-mouse IgG (Cell Signaling Technology, #7076) for 1 h at room temperature. Intensities of the detected bands were analyzed using ImageJ software (National Institutes of Health). The total amount of Rac1 in the lysate was detected using a routine Western blot procedure. RhoA-GTP levels were measured by using the Rho-GTP monoclonal antibody (New East, lot No. 26904, Dilution: 1:1,000). Information regarding the other antibodies used is as follows: anti-RhoA (67B9), Cell Signaling, lot No. #2117, dilution: 1:1,000; anti-Actin, Clone C4, Millipore, lot No. #3018859, dilution: 1:2,000; anti-Amyloid 1-42 6E10, BioLegend, lot No. 803001, dilution: 1:1,000; anti-Phospho-PAK1 (Ser144)/PAK2 (Ser141), Cell Signaling, lot No. #2606, dilution: 1:1,000.

Rac1 [8] = target: Rac1 (Drosophila melanogaster, UniProt P40792); test: Rac1 activity in fly whole brain lysate by Western blot; assay type: in vivo; details: AD flies; EHop-016 100 μmol/L
Method: as §2
The hippocampal tissues from human subjects and mice were harvested and stored in a liquid nitrogen tank for biochemical assay. The tissues were homogenized in cold lysis buffer (Merck-Millipore, 20-168). The insoluble debris were removed after centrifugation at 13,000 rpm (for 10 min, at 4 °C). For GTP-bound Rac/Cdc42, lysates were incubated with GST-tagged PAK (p21-activated kinase)-PBD agarose beads (Cytoskeleton, PAK02) overnight at 4 °C. […] Intensities of the detected bands were analyzed using ImageJ software (National Institutes of Health). The total amount of Rac1 in the lysate was detected using a routine Western blot procedure. RhoA-GTP levels were measured by using the Rho-GTP monoclonal antibody (New East, lot No. 26904, Dilution: 1:1,000). […]

[9] = APP/PS1 mice (eight-month-old), oral CS7171 50 mg/kg, CS7170 50 mg/kg, JKF-034 40 mg/kg once per day

For Amyloid-beta 42 [Aβ42], the “Rac1 activity in HEK-293 cells” value (Rac1 in HEK-293 cells) was “capable of stimulating Rac1 activity”.

Work on `COCCc1ccc(OCC(O)CNC(C)C)cc1` (stereo not drawn) [Metoprolol, reference compound] yielded a Papp A→B at 90 min, 5 μmol/L ([1]; MDCK-MDR1, A-B) of 40.5 ×10⁻⁶ cm/s and a Papp B→A at 90 min, 5 μmol/L ([1]; MDCK-MDR1, B-A) of 28.6 ×10⁻⁶ cm/s.

`O=C(c1ccc(F)cc1)C1CCN(CCn2c(=O)[nH]c3ccccc3c2=O)CC1` [Ketanserin, reference compound] gave a CLint scaled [2] of 111 mL/min/kg, a half-life [2] of 18.3 min and a CLint scaled [3] of 39.5 mL/min/kg. The half-life [3] was 44.1 min, the CLint scaled [4] was 312 mL/min/kg and the half-life [4] was 17.5 min.

With `CCn1c2ccccc2c2cc(Nc3ccnc(NCCCN4CCOCC4)n3)ccc21` [EHop-016] the “LTP maintenance (fast decay after TBS)” value [5] was “The fast decay was rescued; also recorded: attenuated”, the “learning defect in aversive olfactory conditioning” value [6] was “significantly rescued the learning defects; also recorded: rescued the learning defect” and the “MWM escape latency / learning deficit” value (APP/PS1 mice; 9-month-old APP/PS1 mice, EHop-016 10 mg/kg, versus vehicle-treated AD mice, 10 mg/kg) was “took less time to locate the hidden platform; also recorded: did not significantly differ from that of WT mice; also recorded: mitigated the learning deficit”. The “total Rac1 expression in hippocampal tissues” value (Rac1 [7]; 9-month-old AD mice, EHop-016 10 mg/kg) was “without changing total Rac1 expression”, the “Rac1 activity (Rac1-GTP/Total Rac1) in hippocampal tissues” value (Rac1 [7]; 9-month-old AD mice, EHop-016 10 mg/kg, intragastric once per day, 10 days, 10 mg/kg) was “significantly inhibited Rac1 activity; also recorded: inhibition of Rac1 activity” and the “Rac1 activity in whole brain lysis” value (Rac1 [8]) was “reduced Rac1 activity; also recorded: inhibition of Rac1 activity”. The “total Rac1 expression” value (Rac1 [8]) was “without changing the total Rac1 expression”.

For `COc1cc(C=C2C(=O)NN(c3ccc(Cl)c(Cl)c3)C2=O)ccc1O` [CS7170], the “MWM learning deficit / spatial memory” value (APP/PS1 mice; [9]) was “not” and the “hippocampal Rac1 activity (Rac1-GTP/total Rac1)” value (Rac1 [7]; [9]) was “not and unable to inhibit Rac1 activity”.
